Source: patent US8598316B2, “Molecules that selectively home to vasculature of pre-malignant dysplastic lesions or malignancies” (priority 2003, dated 2013)

What was measured:
cultured tumor cells = test: Binding to cultured tumor cells; format: cell-based
[1] = test system: K14-HPV16 tumor-derived cell suspension; test: Ex vivo phage binding to tumor cell suspension; format: cell-based, mouse; settings: phage-displayed peptide
Procedure: (§1) To isolate peptides specific for dysplastic lesions, two rounds of selection were performed ex vivo followed by one round of selection in vivo. […] Phage selections and validations were performed essentially as described in Laakkonen et al., Nat. Med. 8:751-755 (2002).
(§2) To isolate phage that selectively home to squamous cell carcinomas (SCCs), two rounds of ex vivo panning selections were performed followed by two rounds of in vivo panning in K14-HPV16 mice having tumors histologically confirmed as squamous cell carcinoma grades II-IV (Coussens, supra, 1996). The enrichment rose from 6-fold relative to non-recombinant phage in the second ex vivo round to greater than 70-fold relative to non-recombinant phage in the second in vivo round (the fourth sequential round overall) as shown in FIG. 1B. From 192 sequenced phage clones, fifteen were selected for further analysis based on their frequency (48 from ex vivo round 2, 48 from in vivo round 1, and 96 from in vivo round 2) and their increased prevalence in the in vivo selections. Of these, four clones displaying the following amino acid sequences bound to a K14-HPV16 tumor-derived cell suspension ex vivo: CGKRK (SEQ ID NO: 6), CGTKRKC (SEQ ID NO: 11), CDTAVVEGL (SEQ ID NO: 12) and CDTRL (SEQ ID NO: 7). Phage-displaying the sequence CDTAVVEGL (SEQ ID NO: 12) also were 340-fold enriched in tumors in vivo relative to non-recombinant control phage.

[2] = test system: PDSC5, a K14-HPV16 tumor-derived cell line; test: Fluorescein-labeled peptide homing, PDSC5 subcutaneous transplant tumor; format: in vivo, mouse; settings: intravenous, subcutaneous tumor in FVB/n mice
Procedure: (§3) To analyze homing selectivity, the K14-HPV16 squamous cell cancer-homing peptides, CGKRK (SEQ ID NO: 6) and CDTRL (SEQ ID NO: 7), were analyzed for the ability to home to endothelium in tumors of different tissue origins and in tumors localized to different anatomical locations. In particular, three subcutaneously implanted tumors and two tumors produced in transgenic animal models were examined for accumulation of fluorescein-labeled peptides following intravenous injection
(§4) RIP1-Tag2 mice were used at 12 weeks of age, at which time all mice had pancreatic islet tumors. MMTV-PyMT mice were 4 to 6 months old and carried palpable mammary tumors. Cells for subcutaneous inoculation to produce transplant tumors were cultured in 10% fetal calf serum (FCS) in Dulbecco's Modified Eagle's Media (DMEM). Tumors were generated by subcutaneously injecting 10^6 cells into the chest skin of FVB/n (PDSC5) or Balb/c nude (MDA-MB-435 and C8161) mice. Mice bearing subcutaneous transplant tumors had tumors with an approximate diameter of 1 centimeter. PDSC5 tumors and MDA-MB-435 xenografts reached this size about 9 weeks post-injection while C8161 xenografts reached a size of 1 cm about three weeks post-injection.

[3] = test system: breast carcinomas in the MMTV-PyMT transgenic mouse model; test: Fluorescein-labeled peptide homing, MMTV-PyMT transgenic model; format: in vivo; settings: intravenous
Procedure: as §3, §4

[4] = test system: MDA-MB-435 human breast cancer line; test: Fluorescein-labeled peptide homing, MDA-MB-435 xenograft; format: in vivo, mouse; settings: for homing to MDA-MB-435 xenograft: intravenous, subcutaneous tumor in Balb/c nude mice
Procedure: as §3, §4

[5] = test system: angiogenic islets (dysplasias) or tumors in the RIP-Tag transgenic mouse model of pancreatic islet cell carcinoma; test: Fluorescein-labeled peptide homing, RIP-Tag transgenic model; format: in vivo; settings: intravenous
Procedure: as §3, §4

[6] = test system: dysplastic skin vasculature and tumor vasculature; test: Localization of intravenously injected fluorescein-labeled peptides in K14-HPV16 mice (Meca-32 staining); format: in vivo, mouse; settings: intravenous, 10 minutes; for peptide localization in dysplastic skin of tumor-bearing mice / peptide localization in squamous tumor: tumor-bearing K14-HPV16 mice; for peptide localization in dysplastic skin of non-tumor-bearing mice: younger dysplasia-bearing K14-HPV16 mice
Procedure: Both younger dysplasia-bearing and older tumor-bearing K14-HPV16 mice were injected with fluorescein-labeled peptides. After 10 minutes, both normal and neoplastic tissues were collected; tissue sections were prepared and stained with antibodies to both CD31 and a second endothelial marker, the cell-surface antigen Meca-32. Similar results were obtained with the two endothelial marker antibodies; the data for Meca-32 are shown in FIG. 3, in which localization of intravenously infused peptides and antibody was visualized by two-color fluorescence microscopy.
(§5) Areas of skin, tumors and various organs were collected and either fixed in formalin, dehydrated through serial alcohols and embedded in paraffin, or directly embedded in OCT medium (Fisher Scientific). K14-HPV16 dysplasia and tumor samples were graded by evaluating hematoxylin & eosin and anti-keratin staining on 5 μm paraffin sections under a light microscope (Coussens et al., supra, 1996). Rat anti-mouse CD31 and rat anti-mouse Meca-32 (BD Pharmingen; San Diego, Calif.) were used for vascular immunostaining on 10 μm frozen sections. Anti-phage staining and biodistribution of fluorescein-labeled peptides were performed essentially as described in Laakkonen et al., supra, 2002.

[7] = test system: CD31-positive endothelial cells; test: Immunohistochemical localization of intravenously injected phage (anti-T7 / anti-CD31); format: in vivo, mouse; settings: phage-displayed peptide, intravenous; 4 to 6 month-old dysplasia-bearing or 9 to 12 month-old tumor-bearing K14-HPV16 mice
Excerpt: To characterize the nature of the selectivity of the dysplasia- and tumor-homing peptides, K14-HPV16 mice were intravenously injected with cloned phage displaying a particular peptide, and phage localization visualized using histological procedures. Peptide localization was further analyzed with chemically synthesized fluorescein-labeled peptides.
Phage were intravenously injected into 4 to 6 month-old dysplasia-bearing mice with dysplasia-homing phage bearing CSRPRRSEC (SEQ ID NO: 3). In parallel, a set of 9 to 12 month-old tumor-bearing mice were infused with one of the tumor-homing phage CGTKRKC (SEQ ID NO: 11), CGKRK (SEQ ID NO: 6) or CDTRL (SEQ ID NO: 7). Various tissues were collected from each mouse and analyzed by double label immunohistochemical staining using an anti-T7 antibody to detect phage and an anti-CD31 antibody to detect endothelial cells of the vasculature.
as §5

squamous cell carcinomas = test: In vivo homing of individual phage clones to skin tumors of K14-HPV16 mice; set-up: species or system mouse; settings: phage-displayed peptide, intravenous injection, tumor-bearing K14-HPV16 mice
Excerpt: (§6) To test homing specificity of the selected peptides, purified phage displaying a single recombinant sequence were intravenously injected into K14HPV16 mice bearing protuberant ear or trunk tumors at 9 to 12 months of age to assess homing to squamous cell carcinomas, or alternatively injected into younger K14HPV16 mice presenting with multifocal dysplasias but no tumors. Both neoplastic tissues and normal control organs were collected and assayed for phage accumulation. Phage displaying the peptide CRAKSKVAC (SEQ ID NO: 9), which appeared with the highest frequency in both the ex vivo and in vivo sequence pools (5 and 15 times, respectively), were 1500-fold enriched in dysplastic skin relative to non-recombinant control phage. However, phage displaying peptide. […] Several other dysplasia-selected clones also differentiated poorly between control tissues and dysplastic skin; seven of the nine dysplasia-selected phage clones appeared to be responsible for the overall enrichment of recombinant phage in control tissues in the final in vivo round of selection as shown in FIG. 1A (right panel), and were not studied further.
as §2

dysplastic skin lesions = test: In vivo homing of individual phage clones to dysplastic skin of K14HPV16 mice; set-up: species or system mouse; settings: phage-displayed peptide, intravenous injection
Procedure: as §1, §6

[8] = test system: normal skin and control tissues; test: In vivo phage accumulation in normal skin, hyperplastic skin and control organs; set-up: species or system mouse; settings: phage-displayed peptide; for accumulation in control tissues / normal organs: intravenous injection; for homing to normal skin of FVB/n mice: wild-type FVB/n mice
Excerpt: as §6

[9] = test system: C8161 human melanoma line; test: Fluorescein-labeled peptide homing, C8161 xenograft; format: in vivo, mouse; settings: intravenous, subcutaneous tumor in Balb/c nude mice
Procedure: as §3, §4

mitochondrial membranes = settings: at a concentration of 10 μM; cited from earlier work
[10] = test system: hyperplastic skin of 1 to 2 month-old K14-HPV16 mice; test: Ex vivo phage binding to hyperplastic skin; format: cell-based, mouse; settings: phage-displayed peptide

Row | Substance | binding to K14-HPV16 tumor-derived cell suspension ex vivo [1] | homing to angiogenic islets or tumors of RIP-Tag mice [5] | peptide localization in dysplastic skin of tumor-bearing mice [6] | peptide localization in squamous tumor [6] | peptide localization in dysplastic skin of non-tumor-bearing mice [6] | tissue localization of phage by immunohistochemical staining [7] | homing to tumor (squamous cell carcinomas) | homing to dysplastic skin (dysplastic skin lesions) | accumulation in control tissues / normal organs [8] | also measured
1 | CGKRK [tumor-homing peptide] | bound | neither peptide CGKRK (SEQ ID NO: 6) nor CDTRL (SEQ ID NO: 7) homed to angiogenic islets (dysplasias) or tumors | at lower levels | primarily detected in tumor vasculature | not detected in the dysplastic skin of younger non-tumor bearing mice | accumulated in tumor tissue | marked preference for the tumor | Some homing to dysplastic lesions | very low levels | binding to cultured tumor cells (cultured tumor cells): bind a range of cultured tumor cells; homing to PDSC5 transplant tumor [2]: homed to cells in each of the three transplant tumors; homing to MMTV-PyMT breast carcinomas [3]: did home to breast carcinomas; subcellular localization in vascular cells ([4]; FIG. 4D, endothelial cells (CD31, Meca-32)): localized in the cytoplasm and nuclei of vascular cells; homing to MDA-MB-435 xenograft [4]: homed to cells in each of the three transplant tumors; enrichment in tumors in vivo relative to non-recombinant control phage (squamous cell carcinomas): 80 to 1,000 fold; homing to C8161 melanoma xenograft [9]: homed to cells in each of the three transplant tumors
2 | D(KLAKLAK)2 |  |  |  |  |  |  |  |  |  | mitochondrial swelling (mitochondrial membranes): marked mitochondrial swelling
3 | CDTRL [tumor-homing peptide] | bound | neither peptide CGKRK (SEQ ID NO: 6) nor CDTRL (SEQ ID NO: 7) homed to angiogenic islets (dysplasias) or tumors | at lower levels | primarily detected in tumor vasculature | not detected in the dysplastic skin of younger non-tumor bearing mice | localized to large, dilated vessels throughout the dysplastic and hyperplastic skin | variable preference for squamous cell carcinomas and dysplastic lesions |  |  | binding to cultured tumor cells (cultured tumor cells): bind a range of cultured tumor cells; homing to PDSC5 transplant tumor [2]: accumulated only in the melanoma xenografts; homing to MMTV-PyMT breast carcinomas [3]: did home to breast carcinomas; homing to MDA-MB-435 xenograft [4]: accumulated only in the melanoma xenografts; affinity for hyperplastic skin ([8]; in vivo, K14-HPV16 mice): little affinity for hyperplastic skin; homing to normal skin of FVB/n mice ([8]; in vivo): no significant homing to normal skin; homing to C8161 melanoma xenograft [9]: accumulated only in the melanoma xenografts
4 | CRAKSKVAC (phage-displayed) |  |  |  |  |  |  |  |  | accumulated with similar frequency in normal skin, kidney and brain | enrichment in dysplastic skin relative to non-recombinant control phage (dysplastic skin lesions): 1500 fold
5 | CSRPRRSEC [dysplasia-homing peptide from CX7C library] |  | does not recognize pre-malignant lesions | co-localized with Meca-32 in dysplastic skin vasculature | not detected within the squamous tumor | co-localized with Meca-32 in dysplastic skin vasculature | accumulated in dysplastic skin | little homing to the tumor | effectively homed to dysplastic chest skin and dysplastic ear skin | did not significantly accumulate in control tissues | binding to hyperplastic skin ex vivo [10]: did not bind to hyperplastic skin; enrichment in dysplastic skin relative to non-recombinant control phage (dysplastic skin lesions): ~350 fold; homing to dysplastic skin (dysplastic skin lesions; listed as CSRPRRSRC): maintained the ability to home; homing to normal skin of FVB/n mice ([8]; in vivo): did not home to normal skin of FVB/n mice
6 | CDTAVVEGL (phage-displayed) | bound |  |  |  |  |  |  |  |  | enrichment in tumors in vivo relative to non-recombinant control phage (squamous cell carcinomas): 340 fold
7 | CGTKRKC (phage-displayed) | bound |  |  |  |  | detected to a lesser extent in dysplastic skin of tumor-bearing mice |  |  |  | 
8 | CNRRTKAGC (phage-displayed) |  |  |  |  |  |  |  | highly selective for dysplastic skin | did not appreciably home to normal organs | 
